Results from patent US4328134A, “Anorexigenic peptides” (priority 1980, dated 1982).

Experiments:
mice [1] = details: mice fasted for 17 hours; cited from earlier work
dogs = assay: sham-feeding in dogs with esophageal, gastric and pancreatic fistulae: gastric and pancreatic secretion
mice [2] = details: cited from earlier work
[3] = in vivo; cited from earlier work

## bovine serum albumin: bovine serum albumin
Mice [1]
  effect on food intake: ineffective

## caerulein
dogs; 0.5 mcg/kg/hour of caerulein
  maximal pancreatic protein secretion: 650±86 mg/15 mins.

## NCCc1c[nH]cn1 [histamine]
dogs; 320 mcg/kg/hour of histamine
  maximal acid output: 13.55±1.8 mEq/15 mins.

## O=C[C@H](O)[C@@H](O)[C@H](O)[C@H](O)CO [glucose]
Mice [1]
  effect on food intake: ineffective

## secretin
Mice [1]
  effect on food intake: ineffective

## H-(pyro)-Glu-His-GlyOH [appetite-retarding peptide]
Mice [2]; 12 nmole daily for 20 days, dropped from a mean of 35 g
  body weight, minimum: 24 g
Mice [2]; 12 nmole injected daily for 20 days, reduced from 5.7
  food consumption: 3.0 g per day
Mice [2]; 12 nmole injected daily for 20 days
  duration of reduced food consumption: about 6 months
[3]
  acute effect on blood glucose: no acute effect
  acute effect on serum insulin levels: no acute effect

## glucagon
Mice [1]
  effect on food intake: ineffective
